{
  "source": "paper PMC9020739",
  "about": "“Identification of a two-component regulatory system involved in antimicrobial peptide resistance in Streptococcus pneumoniae” (PLoS Pathogens, 2022)",
  "key": {"[1]": {"system": "BceA-GFP in S. pneumoniae R800", "assay": "BceA-GFP expression by fluorescence microscopy and Western blot", "assay_type": "cell-based, Streptococcus pneumoniae", "settings": "bacitracin 0.5 μg/mL, 30 min, 37°C, fluorescence microscopy of individual cells", "protocol": "Cells were inoculated in C+Y medium and grown at 37°C, without agitation and in anaerobic conditions, until at OD550nm = 0.3. After centrifugation 5 min at 5,000 g, pellets were resuspended in 1/50th of initial volume in TE buffer (25 mM Tris-HCl pH = 7.5, EDTA 1 mM) with DNase/RNase 6 μg/mL and protease inhibitor CLAPA 1X (Chymostatin 1 μg/mL, Pepstatin 1 μg/mL, Leupeptin 1 μg/mL, Antipaïn 1 μg/mL, Aprotinin 4 μg/mL). Cells were lysed by sonication by using Sonifier 450 Branson device. 25 μg of crude extracts were mixed with Laemmli loading buffer and heated 10 min at 95°C. Samples were loaded onto an 12.5% SDS-PAGE and migration was performed in TG-SDS buffer (Tris-HCl 25 mM, Glycine 0.192 M, SDS 0.1% (v/v)). Proteins were transferred onto a PVDF membrane, previously activated by methanol 100%, in a transfer buffer (Tris-HCl 25 mM pH = 8, Glycine 0.192 M, methanol 20% (v/v), SDS 0.04% (v/v)). The membrane was washed with TBST (Tris-HCl 100 mM pH = 8, NaCl 150 mM, Tween 0.05%) and incubated 1 h with blocking buffer (BSA 5%, TBST). […]\nPneumococcal cells were grown at 37°C until OD550nm = 0.2 in C+Y medium. […] Images were analyzed using ImageJ (http://rsb.info.nih.gov/ij/) and the plugin MicrobeJ to generate violin plots."}, "[2]": {"biological_target": "BceAB transporter from S. pneumoniae (Streptococcus pneumoniae, UniProt A0A0H2ZN40)", "assay_type": "biochemical", "settings": "5 mM nucleotide, 300 μg/mL bacitracin", "protocol": "E. coli BL21(DE3) cells were transformed with pRSF-Duet1-BceAB WT, K48A or E170Q and selected on LB-agar plates containing 50 μg/mL kanamycin. One colony was inoculated into in 2L-baffled flasks containing 500 mL of 2YT medium and 50 μg/mL kanamycin and grown at 37°C, 180 rpm to OD600 of 0.6. Protein expression was induced by adding IPTG to a final concentration of 1 mM. Induction was performed overnight at 25°C and cells were harvested by centrifugation at 7,000 g for 20 min.\nCells were resuspended in buffer A (HEPES-NaOH 100 mM pH 8.0, NaCl 150 mM) and lysed by passaging them three times through a cell disruptor (Microfluidizer, Microfluidics) at 18,000 psi (or 1,24 x 108 Pa). Undisrupted cells and cell debris were removed by centrifugation at 15,000 x g for 30 min at 4°C. Membranes were harvested from the supernatant after ultracentrifugation at 150,000 x g for 1 h at 4°C. Membranes were resuspended in 20 mL of buffer A and centrifuged once again at 150,000 x g for 1 h at 4°C. Membrane pellets were homogenized in buffer HEPES-NaOH 100 mM pH 8.0, NaCl 150 mM and 20% glycerol, and stored at -80°C.\nFor the purification of BceAB, membranes from 0,5 L cell culture were diluted in buffer B (100 mM d’HEPES-NaOH pH 8, 150 mM NaCl, 10% glycerol) to a protein concentration of 4 mg/mL and solubilized with 0.5% (w/v) LMNG for 2 h at 4°C. After ultracentrifugation at 150,000 x g for 1 h at 4°C, the supernatant containing solubilized proteins was diluted four times using buffer B and loaded on Ni^2+-charged immobilized metal-ion affinity chromatography (IMAC) column (1 mL HisTrap HP, Cytiva). The column was washed with 10 mL of buffer B containing 0.005% (w/v) LMNG and 20 mM of imidazole. The column was further washed with the same buffer until OD280nm reached basal levels. BceAB was eluted by buffer B containing 0.005% (w/v) LMNG and an imidazole gradient from 20 to 500 mM of imidazole. Purified BceAB was dialyzed into buffer B containing 0.005% (w/v) LMNG and stored at -80°C.\nThe proteoliposomes were prepared as previously described for the transporter BmrA [50]. Proteoliposomes were loaded on sucrose gradient with different layers of 400 μL of 50 mM HEPES-KOH pH 8.0 buffer containing 30, 20, 15 or 10% of sucrose. One mL of proteoliposomes was loaded on the top of the sucrose gradient and ultra-centrifuged at 200,000 x g for 12 h at 4°C. Proteoliposomes were typically collected from the 15% layer and were loaded on SDS-PAGE to analyze and quantify the presence of BceAB by using a standard-curve of purified BceAB and ImageJ.\nThese activities were performed as previously described."}},
  "note": "Where a SMILES comes first, the peptide text is derived from it. Bridges are numbered along the chain shown (N, C = ends). [ ]: non-standard residue; d: D form. The star is where a group is joined. Ileψ(thiazoline)Cys = CC[C@H](C)[C@H](N)C1=N[C@H](C(=O)*)CS1; dOrn = NCCC[C@@H](N)C(=O)O",
  "data": [
    {"smiles": "CC[C@H](C)[C@H](N)C1=N[C@H](C(=O)N[C@@H](CC(C)C)C(=O)N[C@H](CCC(=O)O)C(=O)N[C@H](C(=O)N[C@H]2CCCCNC(=O)[C@H](CC(N)=O)NC(=O)[C@@H](CC(=O)O)NC(=O)[C@H](Cc3cnc[nH]3)NC(=O)[C@@H](Cc3ccccc3)NC(=O)[C@H]([C@@H](C)CC)NC(=O)[C@@H](CCCN)NC2=O)[C@@H](C)CC)CS1", "note": "[bacitracin] ({Ileψ(thiazoline)Cys}-L[dE]IK[dOrn]I[dF]H[dD]N; lactam 4-C (inferred); N-terminus assumed)", "values": [
      {"measurement": "Expression of BceA-GFP", "setting": "[1]", "value": "strongly activated"},
      {"measurement": "ATPase activity of wild-type BceAB stimulated by bacitracin", "setting": "[2]; after reconstitution in liposomes, calculated on total protein added to the reconstitution mixture", "value": "0.6–1 μmol of ATP hydrolyzed/min/mg"},
      {"measurement": "Specific ATPase activity of wild-type BceAB in the presence of bacitracin", "setting": "[2]; proteoliposomes further separated on sucrose gradient", "value": "up to 2 μmol ATP hydrolyzed/min/mg"}
    ]}
  ]
}
